In experiment [1] the target is 5-hydroxytryptamine receptor 1D (Homo sapiens) (UniProt P28221). Description: Selectivity interaction (GPCR panel (PDSP screen)) EUB0001079a HTR1D. As to conditions: at 10 µM.
A further experiment has as its target Focal adhesion kinase 1 (Homo sapiens, UniProt Q05397). Put plainly: Selectivity interaction (KinaseProfiler screening (Millipore)) EUB0000601a PTK2. The conditions noted are these: at 3 µM.
In experiment [2] the target is Serine/threonine-protein kinase WNK2 (Homo sapiens) (UniProt Q9Y3S1). Description: Selectivity interaction (ActivX KiNativ screen (kinase selectivity in THP-1 cell lysates)) EUB0000639a WNK2. As to conditions: lysate, at 5 µM. It counts as subcellular.
The target of experiment [3] is Tyrosine-protein kinase JAK2 (Homo sapiens, UniProt O60674). Description: Selectivity interaction (Kinase panel (Invitrogen)) EUB0000639a JAK2. As to conditions: at 200 nM.
The target of another experiment is T1, Peregrin (Homo sapiens) (UniProt P55201).
T1 sequence (whole entry): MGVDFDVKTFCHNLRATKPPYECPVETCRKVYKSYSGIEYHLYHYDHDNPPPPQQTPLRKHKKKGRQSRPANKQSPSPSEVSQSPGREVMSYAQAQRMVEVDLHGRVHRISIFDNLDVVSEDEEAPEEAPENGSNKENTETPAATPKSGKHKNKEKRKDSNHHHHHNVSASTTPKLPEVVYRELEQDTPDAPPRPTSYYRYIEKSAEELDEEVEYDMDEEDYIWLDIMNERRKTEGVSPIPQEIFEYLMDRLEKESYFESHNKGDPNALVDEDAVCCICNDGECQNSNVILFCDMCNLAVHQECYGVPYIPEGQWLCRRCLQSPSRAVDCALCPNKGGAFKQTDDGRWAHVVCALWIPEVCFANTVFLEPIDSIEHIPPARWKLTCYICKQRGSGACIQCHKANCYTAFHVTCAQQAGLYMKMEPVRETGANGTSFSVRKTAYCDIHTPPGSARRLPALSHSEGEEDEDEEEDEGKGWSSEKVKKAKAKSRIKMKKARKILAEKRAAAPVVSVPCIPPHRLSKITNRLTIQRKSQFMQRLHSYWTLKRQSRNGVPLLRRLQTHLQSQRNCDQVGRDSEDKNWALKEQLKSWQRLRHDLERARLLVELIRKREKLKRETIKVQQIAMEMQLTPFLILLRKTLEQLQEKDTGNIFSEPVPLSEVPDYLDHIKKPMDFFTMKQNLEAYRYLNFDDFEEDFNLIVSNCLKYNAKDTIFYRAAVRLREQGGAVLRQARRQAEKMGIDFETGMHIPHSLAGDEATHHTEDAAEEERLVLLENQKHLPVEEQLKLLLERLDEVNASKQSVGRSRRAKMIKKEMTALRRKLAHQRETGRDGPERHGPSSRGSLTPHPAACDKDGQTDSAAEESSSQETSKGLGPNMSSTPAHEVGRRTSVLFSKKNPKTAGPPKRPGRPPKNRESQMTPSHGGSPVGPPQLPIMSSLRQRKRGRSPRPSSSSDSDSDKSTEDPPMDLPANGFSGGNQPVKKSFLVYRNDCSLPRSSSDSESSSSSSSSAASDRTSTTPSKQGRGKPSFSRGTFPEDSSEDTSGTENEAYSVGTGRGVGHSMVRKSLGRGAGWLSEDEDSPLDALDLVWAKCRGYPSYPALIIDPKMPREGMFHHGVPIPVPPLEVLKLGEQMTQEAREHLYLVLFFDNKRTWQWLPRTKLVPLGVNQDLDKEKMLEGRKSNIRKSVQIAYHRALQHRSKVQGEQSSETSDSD
Put plainly: Selectivity interaction (Bromodomain panel (DSF asssay)) EUB0000270b BRPF1.

Experiment [4] concerns the target T2, Serine/threonine-protein kinase TAO2 (Homo sapiens) (UniProt Q9UL54).
T2 sequence (whole entry): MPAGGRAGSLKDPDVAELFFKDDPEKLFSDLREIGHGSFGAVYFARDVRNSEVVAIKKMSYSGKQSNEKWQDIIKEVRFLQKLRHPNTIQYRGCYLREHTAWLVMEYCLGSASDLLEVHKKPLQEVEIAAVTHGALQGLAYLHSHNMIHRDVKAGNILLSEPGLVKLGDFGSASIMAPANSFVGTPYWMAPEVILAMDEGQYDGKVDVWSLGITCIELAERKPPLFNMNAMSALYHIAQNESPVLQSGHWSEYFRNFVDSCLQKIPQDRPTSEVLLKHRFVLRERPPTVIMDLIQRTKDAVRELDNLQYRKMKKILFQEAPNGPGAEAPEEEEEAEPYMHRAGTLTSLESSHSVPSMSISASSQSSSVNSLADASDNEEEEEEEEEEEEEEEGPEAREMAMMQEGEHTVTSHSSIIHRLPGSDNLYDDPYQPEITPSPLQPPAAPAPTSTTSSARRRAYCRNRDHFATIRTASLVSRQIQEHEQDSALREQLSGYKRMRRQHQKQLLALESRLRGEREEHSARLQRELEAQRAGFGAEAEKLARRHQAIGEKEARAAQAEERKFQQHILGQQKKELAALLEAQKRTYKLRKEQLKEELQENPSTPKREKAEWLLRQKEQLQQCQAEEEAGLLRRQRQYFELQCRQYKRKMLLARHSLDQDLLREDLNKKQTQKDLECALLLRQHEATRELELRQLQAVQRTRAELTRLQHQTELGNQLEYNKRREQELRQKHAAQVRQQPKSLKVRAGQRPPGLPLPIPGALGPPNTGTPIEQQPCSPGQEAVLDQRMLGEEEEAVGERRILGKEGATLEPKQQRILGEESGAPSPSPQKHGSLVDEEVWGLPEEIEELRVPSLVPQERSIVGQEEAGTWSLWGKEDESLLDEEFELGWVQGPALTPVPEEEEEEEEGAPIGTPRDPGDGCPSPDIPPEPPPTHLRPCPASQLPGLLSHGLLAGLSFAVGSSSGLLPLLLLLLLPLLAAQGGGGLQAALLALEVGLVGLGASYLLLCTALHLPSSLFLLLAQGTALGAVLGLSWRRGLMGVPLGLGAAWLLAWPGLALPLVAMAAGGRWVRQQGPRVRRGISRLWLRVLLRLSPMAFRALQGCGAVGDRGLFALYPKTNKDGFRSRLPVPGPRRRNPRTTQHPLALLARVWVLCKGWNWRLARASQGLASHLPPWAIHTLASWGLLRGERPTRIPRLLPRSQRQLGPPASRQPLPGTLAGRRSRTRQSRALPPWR
Description: Selectivity interaction (KinomeScan (DiscoverX)) EUB0000045b TAOK2.

Chain of Serine/threonine-protein kinase WNK2 (Homo sapiens) (Q9Y3S1 whole entry): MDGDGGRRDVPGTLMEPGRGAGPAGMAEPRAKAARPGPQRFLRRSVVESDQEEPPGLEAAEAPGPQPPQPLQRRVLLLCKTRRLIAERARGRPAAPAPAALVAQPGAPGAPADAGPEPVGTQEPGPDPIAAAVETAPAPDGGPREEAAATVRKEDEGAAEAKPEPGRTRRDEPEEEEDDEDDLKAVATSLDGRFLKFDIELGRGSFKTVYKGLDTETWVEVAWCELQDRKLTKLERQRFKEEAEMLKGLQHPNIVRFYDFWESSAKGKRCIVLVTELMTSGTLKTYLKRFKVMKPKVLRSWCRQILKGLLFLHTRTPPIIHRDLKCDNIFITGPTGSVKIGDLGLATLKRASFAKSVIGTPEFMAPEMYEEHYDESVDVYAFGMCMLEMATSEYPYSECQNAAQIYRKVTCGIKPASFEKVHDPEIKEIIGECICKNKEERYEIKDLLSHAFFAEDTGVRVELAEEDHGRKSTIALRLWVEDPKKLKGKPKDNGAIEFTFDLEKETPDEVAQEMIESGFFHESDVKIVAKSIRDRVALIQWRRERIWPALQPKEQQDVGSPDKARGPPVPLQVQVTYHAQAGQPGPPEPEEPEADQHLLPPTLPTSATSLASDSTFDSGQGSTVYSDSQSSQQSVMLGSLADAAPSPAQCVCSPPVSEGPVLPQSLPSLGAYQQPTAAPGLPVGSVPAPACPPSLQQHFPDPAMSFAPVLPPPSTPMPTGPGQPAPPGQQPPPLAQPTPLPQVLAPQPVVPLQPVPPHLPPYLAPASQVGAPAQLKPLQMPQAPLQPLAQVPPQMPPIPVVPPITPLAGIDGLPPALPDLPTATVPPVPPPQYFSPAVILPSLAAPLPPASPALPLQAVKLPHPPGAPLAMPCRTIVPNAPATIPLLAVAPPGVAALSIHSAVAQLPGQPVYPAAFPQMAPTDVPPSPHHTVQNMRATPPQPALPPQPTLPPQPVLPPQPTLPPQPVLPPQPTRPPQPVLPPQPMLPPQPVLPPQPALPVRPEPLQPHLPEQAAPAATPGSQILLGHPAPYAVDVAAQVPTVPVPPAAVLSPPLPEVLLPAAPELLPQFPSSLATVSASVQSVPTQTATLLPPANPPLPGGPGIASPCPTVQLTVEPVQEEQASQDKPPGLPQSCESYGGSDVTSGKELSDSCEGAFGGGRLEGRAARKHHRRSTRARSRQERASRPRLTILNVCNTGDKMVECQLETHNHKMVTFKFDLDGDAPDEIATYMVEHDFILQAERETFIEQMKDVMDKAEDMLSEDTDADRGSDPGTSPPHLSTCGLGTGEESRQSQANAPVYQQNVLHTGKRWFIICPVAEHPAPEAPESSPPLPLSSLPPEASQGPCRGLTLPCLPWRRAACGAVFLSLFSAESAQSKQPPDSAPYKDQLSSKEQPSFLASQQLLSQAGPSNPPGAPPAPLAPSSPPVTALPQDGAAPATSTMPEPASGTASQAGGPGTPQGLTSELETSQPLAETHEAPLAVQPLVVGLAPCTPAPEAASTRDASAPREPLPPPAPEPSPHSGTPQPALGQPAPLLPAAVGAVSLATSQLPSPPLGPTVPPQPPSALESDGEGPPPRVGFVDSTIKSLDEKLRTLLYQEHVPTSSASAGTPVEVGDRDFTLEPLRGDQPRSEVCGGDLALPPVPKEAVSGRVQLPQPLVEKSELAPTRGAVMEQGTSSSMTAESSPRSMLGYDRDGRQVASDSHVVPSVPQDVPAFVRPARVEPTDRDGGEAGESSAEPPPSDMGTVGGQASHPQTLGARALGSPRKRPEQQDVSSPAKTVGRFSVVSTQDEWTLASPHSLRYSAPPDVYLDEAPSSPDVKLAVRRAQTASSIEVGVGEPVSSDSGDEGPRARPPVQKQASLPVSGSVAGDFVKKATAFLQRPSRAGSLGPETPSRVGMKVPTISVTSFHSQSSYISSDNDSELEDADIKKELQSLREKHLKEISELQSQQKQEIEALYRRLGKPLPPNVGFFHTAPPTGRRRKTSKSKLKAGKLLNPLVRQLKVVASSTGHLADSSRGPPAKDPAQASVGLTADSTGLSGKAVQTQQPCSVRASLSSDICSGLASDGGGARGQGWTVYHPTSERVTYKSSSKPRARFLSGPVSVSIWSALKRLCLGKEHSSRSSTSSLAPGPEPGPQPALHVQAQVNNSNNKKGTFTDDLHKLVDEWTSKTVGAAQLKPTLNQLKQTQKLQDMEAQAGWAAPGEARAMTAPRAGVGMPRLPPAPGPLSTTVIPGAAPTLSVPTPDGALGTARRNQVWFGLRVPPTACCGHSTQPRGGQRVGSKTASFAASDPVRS
Chain of Focal adhesion kinase 1 (Q05397 2-1052 limits assumed): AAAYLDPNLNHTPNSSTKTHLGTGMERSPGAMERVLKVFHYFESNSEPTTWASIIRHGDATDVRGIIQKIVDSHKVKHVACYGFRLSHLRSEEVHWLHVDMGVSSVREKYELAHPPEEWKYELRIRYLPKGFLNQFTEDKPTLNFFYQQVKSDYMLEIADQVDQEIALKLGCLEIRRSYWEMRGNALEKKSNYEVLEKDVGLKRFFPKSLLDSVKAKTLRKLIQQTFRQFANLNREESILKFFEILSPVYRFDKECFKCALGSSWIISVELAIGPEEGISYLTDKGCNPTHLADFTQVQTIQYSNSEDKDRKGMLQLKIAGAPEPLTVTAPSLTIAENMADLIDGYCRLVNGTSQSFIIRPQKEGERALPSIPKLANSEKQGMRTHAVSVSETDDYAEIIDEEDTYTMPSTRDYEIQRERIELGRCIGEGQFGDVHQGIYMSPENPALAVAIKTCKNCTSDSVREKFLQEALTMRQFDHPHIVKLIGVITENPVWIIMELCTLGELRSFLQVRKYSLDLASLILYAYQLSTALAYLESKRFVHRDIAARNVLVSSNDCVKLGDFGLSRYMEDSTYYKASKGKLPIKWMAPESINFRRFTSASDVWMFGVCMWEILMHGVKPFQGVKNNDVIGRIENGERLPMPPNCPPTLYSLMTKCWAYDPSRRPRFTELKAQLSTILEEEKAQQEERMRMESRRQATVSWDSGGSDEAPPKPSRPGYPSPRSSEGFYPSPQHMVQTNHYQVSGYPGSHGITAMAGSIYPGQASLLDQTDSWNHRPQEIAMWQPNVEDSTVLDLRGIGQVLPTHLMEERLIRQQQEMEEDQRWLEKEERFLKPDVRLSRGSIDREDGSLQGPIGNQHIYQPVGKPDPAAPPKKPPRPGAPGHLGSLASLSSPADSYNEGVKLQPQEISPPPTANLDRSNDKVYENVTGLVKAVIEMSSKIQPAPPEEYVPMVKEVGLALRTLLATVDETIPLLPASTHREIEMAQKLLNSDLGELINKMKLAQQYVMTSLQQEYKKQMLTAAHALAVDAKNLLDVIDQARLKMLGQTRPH
Chain of Tyrosine-protein kinase JAK2 (O60674 whole entry): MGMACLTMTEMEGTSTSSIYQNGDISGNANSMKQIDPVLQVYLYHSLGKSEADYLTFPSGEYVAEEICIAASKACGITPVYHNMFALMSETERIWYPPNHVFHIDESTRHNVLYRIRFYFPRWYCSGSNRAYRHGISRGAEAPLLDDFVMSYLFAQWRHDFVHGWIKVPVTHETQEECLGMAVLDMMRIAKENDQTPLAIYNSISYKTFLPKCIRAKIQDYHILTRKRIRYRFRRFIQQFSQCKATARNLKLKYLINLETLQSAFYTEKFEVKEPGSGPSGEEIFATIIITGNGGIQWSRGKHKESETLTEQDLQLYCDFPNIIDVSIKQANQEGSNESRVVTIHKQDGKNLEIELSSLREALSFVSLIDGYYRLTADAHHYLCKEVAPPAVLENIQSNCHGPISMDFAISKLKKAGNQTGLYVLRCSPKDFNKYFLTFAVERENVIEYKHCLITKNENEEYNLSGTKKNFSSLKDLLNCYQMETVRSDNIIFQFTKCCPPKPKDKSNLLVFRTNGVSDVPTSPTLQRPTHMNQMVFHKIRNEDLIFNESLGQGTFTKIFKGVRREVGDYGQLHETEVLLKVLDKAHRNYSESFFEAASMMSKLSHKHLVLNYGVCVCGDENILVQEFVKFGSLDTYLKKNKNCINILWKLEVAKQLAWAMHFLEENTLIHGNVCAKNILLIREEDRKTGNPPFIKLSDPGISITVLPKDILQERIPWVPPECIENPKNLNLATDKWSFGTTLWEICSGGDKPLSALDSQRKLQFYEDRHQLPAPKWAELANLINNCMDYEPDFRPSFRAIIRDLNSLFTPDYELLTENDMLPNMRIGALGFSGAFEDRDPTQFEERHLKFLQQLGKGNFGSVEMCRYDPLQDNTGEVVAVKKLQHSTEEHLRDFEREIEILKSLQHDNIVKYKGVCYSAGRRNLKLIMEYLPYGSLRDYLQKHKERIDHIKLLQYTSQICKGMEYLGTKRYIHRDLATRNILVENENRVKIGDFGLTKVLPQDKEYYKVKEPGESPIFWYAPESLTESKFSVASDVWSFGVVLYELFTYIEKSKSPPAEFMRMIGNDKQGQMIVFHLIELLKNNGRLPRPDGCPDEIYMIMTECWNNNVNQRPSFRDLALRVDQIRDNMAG
Chain of 5-hydroxytryptamine receptor 1D (Homo sapiens) (P28221 whole entry): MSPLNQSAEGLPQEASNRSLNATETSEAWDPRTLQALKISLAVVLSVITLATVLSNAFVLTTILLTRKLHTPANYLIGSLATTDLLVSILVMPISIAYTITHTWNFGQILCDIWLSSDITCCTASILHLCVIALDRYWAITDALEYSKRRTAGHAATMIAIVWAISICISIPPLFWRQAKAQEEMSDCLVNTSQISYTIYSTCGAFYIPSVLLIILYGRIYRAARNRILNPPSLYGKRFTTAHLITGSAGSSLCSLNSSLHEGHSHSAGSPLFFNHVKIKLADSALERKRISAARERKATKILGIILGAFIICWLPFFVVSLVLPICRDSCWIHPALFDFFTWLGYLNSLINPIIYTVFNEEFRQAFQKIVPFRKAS

Turning to `Nc1cnc(N2CCc3cc(S(=O)(=O)Nc4c(F)cc(Cl)cc4F)cc(N4CCCC4=O)c32)nc1` [TP-020n], in experiment [1], the % of inhibition was 9.24%.

`CCc1cc(Nc2nccc(-c3c(-c4ccc(OC)c(C(=O)Nc5c(F)cccc5F)c4)nc4ccccn34)n2)c(OC)cc1N1CCC(N2CCN(S(C)(=O)=O)CC2)CC1`: the % of inhibition at Focal adhesion kinase 1 came out at 51%.

Take `CC[C@@H]1[C@H](F)C(=O)N[C@@H]1COc1nccc2cc(C(N)=O)c(OC)cc12` [ZIMLOVISERTIB]: the % of inhibition in experiment [2] is -14.5%; in experiment [3], 15.4%.

`Cc1cc(CN)cc(C)c1-c1ncn(C)c1-c1cncn1C` gave a dTM on Peregrin (Homo sapiens) of -1.98 K.

`C=CC(=O)Nc1cc(-n2c(=O)ccc3cnc4ccc(-c5ccc(NS(C)(=O)=O)cc5)cc4c32)ccc1C`: the % of control in experiment [4] (at 1 µM) turned out to be 80%; in experiment [4] (at 10 µM), 100%.

Values taken from ChEMBL document CHEMBL5465560, “Selectivity Literature for EUbOPEN Chemogenomic Library” (2024).
